Source: US20210353769A1, “SURFACE MODIFIED EXTRACELLULAR VESICLES” (City University of Hong Kong, priority 2018, published 2021)

Test system: H358 cells
Assay: Uptake of Calcein AM-labelled RBCEVs by H358 cells (FACS)
Format: cell-based, human
Settings: 5-20 μg/ml Filipin
Description: To test the uptake of RBCEVs by the cells, we labelled RBCEVs with Calcein AM, a fluorescent dye, and sortagged the labelled RBCEVs with biotinylated EGFR-targeting peptide as described above. The labelled and sortagged RBCEVs were washed extensively with SEC and 2 rounds of centrifugation. We incubated H358 cells with a suboptimal dose of the labelled RBCEVs and analysed Calcein AM fluorescence in the cells after 2 hours of incubation (FIG. 8C). The fluorescent background was determined based on the supernatant of the last wash (flowthrough) of the labelled RBCEVs.
In a shorter uptake assay, H358, HCC827, MOLM13 and THP1 cells were incubated with Calcein AM-labelled RBCEVs for 1 to 2 hours at 37° C. To identify the route of EV uptake, we added 25-100 μM EIPA, 5-20 μg/ml Filipin, 0.25-1 μM Wortmannin.
Flow cytometry of latex beads or cells in FACS buffer was performed using a CytoFLEX-S cytometer (Beckman Coulter) and analyzed using Flowjo V10 (Flowjo, USA). The beads or cells were initially gated based on FSC-A and SSC-A to exclude the debris and dead cells (low FSC-A). The cells were further gated based on FSC-width vs. FSC-height, to exclude doublets and aggregates.

## CCCCC[C@@H](O)[C@H]1C(=O)O[C@H](C)[C@@H](O)/C=C/C=C/C=C/C=C/C=C(\C)[C@@H](O)C[C@H](O)C[C@H](O)C[C@H](O)C[C@H](O)C[C@H](O)C[C@@H]1O [Filipin]
  effect of endocytosis inhibitor on uptake of ET-ligated RBCEVs: reduce the uptake
